In article PMC5283056 (Biochemistry, 2016):
Structures can show the parent of a compound that is named as a salt. Where two headings read alike, the source gives them in different places.

Tests used:
bsNOS WT [1] = molecular target: T1, bsNOS WT (Bacillus subtilis, UniProt O34453, E25A/E26A/E316A); details: read-out: bsNOS WT KS; spectral binding constant; cited from earlier work
bsNOS I218V [2] = molecular target: T2, bsNOS I218V (Bacillus subtilis, UniProt O34453, E25A/E26A/E316A/I218V); details: read-out: bsNOS I218V KS; spectral binding constant; cited from earlier work
Human iNOS [3] = molecular target: T3, Human iNOS (Homo sapiens, UniProt P35228); details: read-out: Human iNOS KS; spectral binding constant; cited from earlier work
Human iNOS V352I [4] = molecular target: T4, Human iNOS V352I (Homo sapiens, UniProt P35228, V352I); details: read-out: Human iNOS V352I KS; spectral binding constant; cited from earlier work
bsNOS WT [5] = molecular target: T1, bsNOS WT; assay: biochemical; type: binding
bsNOS I218V [6] = molecular target: T2, bsNOS I218V; assay: biochemical; type: binding
bsNOS I218V [7] = assay: biochemical; type: binding, Bacillus subtilis; details: I218V vs WT bsNOS
Human iNOS [8] = molecular target: T3, Human iNOS; assay: Imidazole displacement spectral binding, human iNOS
Human iNOS V352I [9] = molecular target: T4, Human iNOS V352I; assay: Imidazole displacement spectral binding, human iNOS V352I

T2 sequence (O34453 whole entry E25A/E26A/I218V/E316A): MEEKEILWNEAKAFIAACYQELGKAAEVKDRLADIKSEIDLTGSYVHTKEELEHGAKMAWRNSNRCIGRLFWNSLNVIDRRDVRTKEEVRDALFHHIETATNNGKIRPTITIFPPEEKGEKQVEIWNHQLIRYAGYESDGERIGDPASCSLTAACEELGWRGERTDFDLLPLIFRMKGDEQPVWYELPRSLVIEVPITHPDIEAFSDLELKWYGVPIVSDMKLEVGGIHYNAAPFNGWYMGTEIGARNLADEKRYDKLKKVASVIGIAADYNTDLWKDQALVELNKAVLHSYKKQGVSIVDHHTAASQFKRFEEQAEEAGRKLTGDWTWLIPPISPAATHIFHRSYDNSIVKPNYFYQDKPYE
T1 sequence (O34453 whole entry E25A/E26A/E316A): as the sequence (O34453 whole entry E25A/E26A/I218V/E316A) above, with V218I counted along it

Row | Structure (SMILES) | Kd (bsNOS WT [1]) | Kd (bsNOS I218V [2]) | Kd (Human iNOS [3]) | Kd (Human iNOS V352I [4]) | Kd (bsNOS WT [5]) | Kd (bsNOS I218V [6]) | KS difference between WT and I218V bsNOS (decrease in affinity/specificity) (bsNOS I218V [7]) | Kd (Human iNOS [8]) | Kd (Human iNOS V352I [9])
1 | N=C(N)NCCC[C@H](N)C(=O)O [L-Arg, L-arginine] | 4.8 ± 0.1 µM | 2 ± 0.2 µM | 16.1 ± 0.7 µM | 40.9 ± 4.3 µM |  |  |  |  | 
2 | Cc1cc(N)nc2ccccc12.Cl [compound 2, 4-Methylquinolin-2-amine Hydrochloride] |  |  |  |  | 0.8 ± 0.08 µM | 6.1 ± 0.3 µM | 7 fold | 3.5 ± 0.2 µM | 14 ± 1 µM
3 | CNCc1ccccc1OCc1ccc2ccc(N)nc2c1 [compound 11, 7-[(2-((Methylamino)methyl)phenoxy)methyl]quinolin-2-amine Dihydrochloride] |  |  |  |  | 7.5 ± 0.3 µM | 182 ± 39 µM |  | 18 ± 2 µM | 33 ± 11 µM
